Test [1] deals with Vero. In words: Compound was evaluated for the virus rating (VR) in test 1 against Herpes simplex virus type 1 (HSV-1) in vero cells. The test is classed as functional, Chlorocebus sabaeus.
Test [2] concerns Vero. In words: Compound was evaluated for the virus rating (VR) in test 2 against Herpes simplex virus type 1 (HSV-1) in vero cells. The test is classed as functional, Chlorocebus sabaeus.
Test [3] concerns Vero. In words: Minimum inhibitory concentration was determined for inhibition of cytopathogenic effects produced by strain 377 (TK+) Herpes simplex virus type 1 (HSV-1) in vero cells. The settings on record: Chlorocebus sabaeus. The test is classed as functional, cell-based.
Test [4] concerns Vero. In words: Minimum inhibitory concentration was determined for inhibition of cytopathogenic effects produced by strain MS Herpes simplex virus type 2 (HSV-2) in vero cells. Type of test: functional, cell-based. The settings on record: Chlorocebus sabaeus.
For test [5], the species on record is Oryctolagus cuniculus. Put plainly: Compound was evaluated for the virus rating (VR) against Herpes simplex virus type 1 (HSV-1) in rabbit kidney cells. Type of test: functional.
For test [6], the species on record is Oryctolagus cuniculus. Put plainly: Compound was evaluated for the virus rating (VR) against Herpes simplex virus type 2 (HSV-2) in rabbit kidney cells. Type of test: functional.
The species named for test [7] is Oryctolagus cuniculus. In words: Minimum inhibitory concentration against strain 377 (TK+) Herpes simplex virus type 1 (HSV-1) in rabbit kidney cells. Type of test: functional.
For test [8], the species on record is Oryctolagus cuniculus. Put plainly: Minimum inhibitory concentration against strain MS Herpes simplex virus type 2 (HSV-2) in rabbit kidney cells. The test is classed as functional.
Setting [9] is: Oryctolagus cuniculus, read-out: MIC50.

This passage reports VR and MIC50 results from ChEMBL document CHEMBL1123726, “Resolution of racemic carbocyclic analogues of purine nucleosides through the action of adenosine deaminase. Antiviral activity of the carbocyclic 2'-deoxyguanosine enantiomers” (1987).

Each structure is given as a SMILES string. In brackets after ≈: the same amount, converted by molar mass.

With `Nc1nc2c(ncn2[C@H]2C[C@@H](CO)[C@H](O)C2)c(=O)[nH]1`, the VR in test [1] was 0.8; in test [2], 1.1.

For the molecule `Nc1nc(N)c2ncn(C3CC(O)C(CO)C3)c2n1` (configuration not stated), the MIC50 entry in test [3] and in test [4] was “Minimum inhibitory concentration was determined for inhibition of cytopathogenic effects produced by strain MS Herpes simplex virus type 2 (HSV-2) in vero cells” in each case.

As to `Nc1nc(O)c2ncn([C@@H]3C[C@H](CO)[C@@H](O)C3)c2n1` (stereo in doubt; 4b), the VR is recorded as 5.9 in test [5] and 3.8 in test [6]. Further, the MIC50 in test [7] (setting [9]) amounted to 0.3 µg/mL (≈ 1.13 µM); in test [8] (setting [9]), 0.7 µg/mL (≈ 2.64 µM).

Turning to `Nc1nc(O)c2ncn([C@@H]3C[C@H](CO)[C@@H](O)C3)c2n1` (stereo in doubt; 4b+5b), the values for the VR in test [5] and in test [6] were 7 and 3.7, respectively. The MIC50 came out at 0.3 µg/mL (≈ 1.13 µM) in test [7] and 0.8 µg/mL (≈ 3.02 µM) in test [8].
